Source: paper PMC12394552, “Multi-biological activity evaluation of Sn(П), Zn(П) and Fe(П) complexes based on thiocarbohydrazide schiff bases: synthesis, spectroscopic investigations and fluorescence studies” (Scientific Reports, 2025)
Converted amounts (≈) assume the structure as drawn.

What was measured:
[1] = test system: Escherichia coli ATCC 8739; assay: MIC determination, broth microdilution (EUCAST adapted); type: cell-based; details: ATCC8739, read-out: E. coli MIC value
Description: (§1) The compounds were tested against Gram-positive bacteria (Staphylococcus aureus ATCC 6538), Gram-negative bacteria (Escherichia coli ATCC 8739) and yeast (Candida albicansATCC10231). […] For bacterial strains, the EUCAST (2025) method was adapted. A few colonies of each bacterial culture previously grown on Mueller-Hinton agar for 24–48 h were suspended in normal saline and adjusted to 0.5 McFarland (1.5 × 10^8 CFU/mL). A 1/10 dilution was prepared in Mueller-Hinton broth (MHB) for the inoculation. In the wells of a 96-well flat-bottom microtiter plate, double serial dilutions of each compound were prepared in MHB. Each well was inoculated with the bacteria to achieve ca. 5 × 10^5 CFU/mL, and the plates were incubated at 37 °C overnight. Positive control (bacteria in culture medium only) and negative control (culture medium) were prepared. Each compound was tested in duplicate. After incubation, the plates were inspected visually for growth inhibition. To test the antimicrobial activity of DMSO, double serial dilutions of DMSO in broth medium were prepared and processed as the samples, but without the addition of the compounds. The antibacterial drug ciprofloxacin was used as a reference for comparison.
(§2) For Candida albicans, the same procedure applied to bacteria was used, except after inoculation, the plates were incubated at 35 °C for 24 h, and after incubation, the absorbance was measured at 530 nm using a plate reader. […] The absorbance of the wells was corrected by subtracting the absorbance of the blank. […] The antifungal drug fluconazole was used as a reference for comparison.

[2] = test system: Staphylococcus aureus ATCC 6538; assay: as above; type: cell-based; details: ATCC6538, read-out: S. aureus MIC value
Description: as §1, §2

[3] = test system: Candida albicans ATCC10231; assay: MIC determination, broth microdilution, absorbance 530 nm; type: cell-based; details: ATCC10231, 24 h, read-out: C. albicans MIC value at 50% inhibition
Description: as §1, §2

RAW 264.7 macrophages = assay: SRB cytotoxicity on RAW 264.7 viability; type: cell-based; details: Mus musculus, RAW264.7, read-out: RAW 264.7 viability IC50 value
Description: (§3) All malignancy cell lines were cultured in high glucose DMEM (Bio Whittaker, Verviers, Belgium) containing 10% FBS, 4-(2-hydroxyethyl)-1-piperazineethanesulfonic acid (HEPES) Buffer (10 mM), L-glutamine (2 mM), gentamicin (50 µg/mL), penicillin (100 U/mL), and streptomycin sulfate ([…]) from Sigma (St. Luis, MO, USA) whereas Sulforhodamine B was from Santa Cruz Biotechnology (Inc. Texas, USA). Surviving cancer cell lines provide numerous advantages; they provide a pure and continuous supply of cells, thus overcoming any ethical barriers concerning human tissue usage, and are cost-effective. For cytotoxicity screening, adherent monolayers of all procured malignancies’ cell lines were examined. Periodontal ligament fibroblasts (PDL) were used to determine selective cytotoxicity.
RAW 264.7 mouse macrophage cell line (ATCC® TIB-71) were cultured in high glucose DMEM supplemented with 10% (FBS), penicillin (100 U/mL), streptomycin (100 µg/mL), and L-glutamate (100 µg/mL) in a 37 °C humidified atmosphere with 95% air and 5% CO2. Confluent macrophages (2 × 10^5/well) were incubated with inflammation-priming lipopolysaccharide (LPS; Sigma, St. Luis, MO, USA) with either indomethacin as the reference agent[39] or treatment compounds at different concentrations (1.563-200 µM). Griess reagent was mixed with aliquots of cell culture media and incubated at R.T. for 10 min. Absorbance at 550 nm was determined using a microplate reader (Spectro Scan 80D UV-VIS spectrophotometer (Sedico Ltd., Nicosia, Cyprus). The nitrite concentration was determined by comparison with a sodium nitrite standard curve. SRB cytotoxicity protocol was performed for evaluation of the effect of the studied test compounds on RAW 264.7 viability.

[4] = test system: Periodontal ligament fibroblasts (PDL); assay: SRB selective cytotoxicity in normal fibroblasts; type: cell-based; details: Fibroblast
Description: as §3

A375 skin melanoma = assay: SRB antiproliferative assay; type: cell-based; details: Homo sapiens, A-375, 72 h; read-out: Cytotoxicity (as of %Control) IC50 value, A375 skin melanoma
Description: as §3

[5] = test system: CACO2 colorectal cancer cell line; assay: SRB antiproliferative assay; type: cell-based; details: Homo sapiens, Caco-2, 72 h; read-out: Cytotoxicity (as of %control) IC50 value, CACO2
Description: as §3

[6] = test system: HCT116 colorectal cancer cell line; assay: SRB antiproliferative assay; type: cell-based; details: Homo sapiens, HCT-116, 72 h; read-out: Cytotoxicity (as of %control) IC50 value, HCT116
Description: as §3

[7] = test system: HT29 colorectal cancer cell line; assay: SRB antiproliferative assay; type: cell-based; details: Homo sapiens, HT-29, 72 h; read-out: Cytotoxicity (as of %control) IC50 value, HT29
Description: as §3

[8] = test system: SW620 colorectal cancer cell line; assay: SRB antiproliferative assay; type: cell-based; details: Homo sapiens, SW-620, 72 h, read-out: Cytotoxicity (as of %control) IC50 value, SW620
Description: as §3

U87 glioblastoma = assay: SRB antiproliferative assay; type: cell-based; details: Homo sapiens, 72 h, read-out: Cytotoxicity (as of %Control) IC50 value, U87 Gliobalstoma
Description: as §3

A549 lung malignancy = assay: SRB antiproliferative assay; type: cell-based, human; details: Homo sapiens, A549, 72 h; read-out: Cytotoxicity (as of %Control) IC50 value, A549 lung malignancy
Description: as §3

[9] = test system: BT-549 invasive mammary malignancy; assay: SRB antiproliferative assay; type: cell-based, human; details: Homo sapiens, BT-549, 72 h; read-out: Cytotoxicity (as of %control) IC50 value, BT-549 invasive mammary malignancy
Description: as §3

Hela cervix malignancy = assay: SRB antiproliferative assay; type: cell-based, human; details: Homo sapiens, HeLa, 72 h; read-out: Cytotoxicity (as of %Control) IC50 value, Hela cervix malignancy
Description: as §3

MCF7 mammary malignancy = assay: SRB antiproliferative assay; type: cell-based, human; details: Homo sapiens, MCF7, 72 h; read-out: Cytotoxicity (as of %control) IC50 value, MCF7 mammary malignancy
Description: as §3

[10] = test system: MDA-MB-231 invasive mammary malignancy; assay: SRB antiproliferative assay; type: cell-based, human; details: Homo sapiens, MDA-MB-231, 72 h, read-out: Cytotoxicity (as of %control) IC50 value, MDA-MB-231 invasive mammary malignancy
Description: as §3

[11] = test system: MDA-MB-453 invasive mammary malignancy; assay: SRB antiproliferative assay; type: cell-based, human; details: Homo sapiens, MDA-MB-453, 72 h; read-out: Cytotoxicity (as of %control) IC50 value, MDA-MB-453 invasive mammary malignancy
Description: as §3

[12] = test system: PANC1 pancreatic cell line; assay: SRB antiproliferative assay; type: cell-based, human; details: Homo sapiens, PANC-1, 72 h; read-out: Cytotoxicity (as of %control) IC50 value, PANC1
Description: as §3

PC3 prostate malignancy = assay: SRB antiproliferative assay; type: cell-based, human; details: Homo sapiens, 72 h; read-out: Cytotoxicity (as of %Control) IC50 value, PC3 prostate malignancy
Description: as §3

[13] = test system: SW480 colorectal cancer cell line; assay: SRB antiproliferative assay; type: cell-based, human; details: Homo sapiens, SW480, 72 h; read-out: Cytotoxicity (as of %control) IC50 value, SW480
Description: as §3

T47D mammary malignancy = assay: SRB antiproliferative assay; type: cell-based, human; details: Homo sapiens, T47D, 72 h; read-out: Cytotoxicity (as of %control) IC50 value, T47D mammary malignancy
Description: as §3

Q: With O=C(O)c1cn(C2CC2)c2cc(N3CCNCC3)c(F)cc2c1=O [Ciprofloxacin, reference compound] as the molecule, how does the MIC [1] read?
A: 0.0008 µg/mL (≈ 0.00241 µM)

Q: What about the MIC [2] of the same molecule?
A: 0.097 µg/mL (≈ 0.293 µM)

Q: Which results are given for COc1ccccc1/C=N/NC(=S)N/N=C/c1ccccc1OC [L1, 1,5-bis(2-methoxyanisaldehyde) thiocarbohydrazine]?
A: MIC [1]: 31.3 µg/mL (≈ 91.4 µM); MIC [2]: 15.6 µg/mL (≈ 45.6 µM); MIC [3]: 31.3 µg/mL (≈ 91.4 µM); IC50 (RAW 264.7 macrophages): > 200 µM; IC50 [4]: > 200 µM; IC50 (A375 skin melanoma): 41.7 ± 0.7 µM; IC50 [5]: 23.2 ± 0.6 µM; IC50 [6]: 36.1 ± 1.9 µM; IC50 [7]: 42.1 ± 5.7 µM; IC50 [8]: < 3.12 µM; IC50 (U87 glioblastoma): 29.5 ± 0.2 µM; IC50 (A549 lung malignancy): 44.8 ± 1.8 µM; IC50 [9]: 46.4 ± 1.11 µM; IC50 (Hela cervix malignancy): 44.8 ± 3.8 µM; IC50 (MCF7 mammary malignancy): 52.4 ± 5.25 µM; IC50 [10]: 29.2 ± 3.8 µM; IC50 [11]: 72.9 ± 3.4 µM; IC50 [12]: 66.8 ± 0.2 µM; IC50 (PC3 prostate malignancy): 145 ± 1.5 µM; IC50 [13]: 5.35 ± 0.25 µM; IC50 (T47D mammary malignancy): 21.8 ± 1.2 µM

Q: How did the MIC [3] turn out when OC(Cn1cncn1)(Cn1cncn1)c1ccc(F)cc1F [Fluconazole, reference compound] was run?
A: 3.9 µg/mL (≈ 12.7 µM)
